For 21 molecules, IC50 results are on record in patent publication US20210284638A1 (Saint Louis University, priority 2018, published 2021).

Assay [1] has as its target T1, Recombinant human integrin αVβ3 (Homo sapiens, UniProt P05106+P06756).
T1 construct: purchased R&D Systems 3050-AV
As to the kind of experiment: Solid Phase Receptor Assay for αVβ3 function. Format: binding. The note with it: plate-bound human vitronectin; read-out: αVβ3 SPRA IC50. Here is the method: C. […] Wells were washed 3 times with 150 μL TBS+ and then 150 μL of blocking buffer (TBS+ with 1% bovine serum albumin, Sigma A7906) was added. The plate was incubated for 1 hr at 37° C. and then washed 3× with TBS+ buffer. […] Compounds were diluted to 20 μM and then 1 μL was added to each well of the plate according to a standard template with each sample repeated in triplicate. After incubation for two hours at room temperature, the plate was washed 3× with 150 μL of TBS+ buffer. To each well, 50 μL of biotinylated anti-αV antibody (R&D Systems, BAF1219) at 0.5 μg/mL in TBS+/0.1% BSA were added and the plate covered and incubated for 1 hr at room temperature. After washing the plate 3× with 150 μL of TBS+ buffer, 50 μL of streptavidin-conjugated horseradish peroxidase (R&D Systems, DY998) diluted in TBS+ blocking buffer were added to the wells and the plate incubated for 20 min at room temperature. The plate was washed 3× with TBS+ buffer followed by 50 μL of TMB substrate (Sigma, T4444) added to each well in the dark and the plate was incubated for 25 min at room temperature. 25 μL of 1.0 M phosphoric acid was added as a stop solution and the plates were read at 450 nm using a Spectramax plate reader.

In assay [2] the target is T2, Recombinant human integrin α5β1 (Homo sapiens, UniProt P05556+P08648).
T2 construct: purchased R&D Systems 3230-A5
T2 sequence (P08648 42-995 limits assumed): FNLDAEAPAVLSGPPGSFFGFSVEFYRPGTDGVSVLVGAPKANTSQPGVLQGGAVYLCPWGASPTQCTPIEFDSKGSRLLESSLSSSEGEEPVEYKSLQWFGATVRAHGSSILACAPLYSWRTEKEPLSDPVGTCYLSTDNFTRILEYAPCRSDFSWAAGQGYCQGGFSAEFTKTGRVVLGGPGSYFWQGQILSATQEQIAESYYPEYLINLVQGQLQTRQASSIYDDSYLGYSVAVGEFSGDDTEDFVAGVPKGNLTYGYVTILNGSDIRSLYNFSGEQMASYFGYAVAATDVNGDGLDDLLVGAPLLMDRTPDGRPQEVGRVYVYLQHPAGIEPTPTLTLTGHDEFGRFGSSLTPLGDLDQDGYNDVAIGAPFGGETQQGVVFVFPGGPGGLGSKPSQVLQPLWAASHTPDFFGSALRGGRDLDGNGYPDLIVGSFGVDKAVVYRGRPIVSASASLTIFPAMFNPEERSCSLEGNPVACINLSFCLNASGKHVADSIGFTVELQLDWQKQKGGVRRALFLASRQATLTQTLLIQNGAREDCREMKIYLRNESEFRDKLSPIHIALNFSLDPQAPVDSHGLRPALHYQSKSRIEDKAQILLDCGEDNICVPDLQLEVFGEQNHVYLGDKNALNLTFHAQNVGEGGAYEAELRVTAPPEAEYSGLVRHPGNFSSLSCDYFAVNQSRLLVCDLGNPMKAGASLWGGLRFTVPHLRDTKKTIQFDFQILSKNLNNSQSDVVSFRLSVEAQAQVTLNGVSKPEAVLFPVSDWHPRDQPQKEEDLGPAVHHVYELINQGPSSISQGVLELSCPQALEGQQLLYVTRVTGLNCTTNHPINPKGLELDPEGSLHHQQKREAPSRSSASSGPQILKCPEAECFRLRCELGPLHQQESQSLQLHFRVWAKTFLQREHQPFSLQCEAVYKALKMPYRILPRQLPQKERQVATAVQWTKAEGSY
T2 sequence (P05556 21-728 limits assumed): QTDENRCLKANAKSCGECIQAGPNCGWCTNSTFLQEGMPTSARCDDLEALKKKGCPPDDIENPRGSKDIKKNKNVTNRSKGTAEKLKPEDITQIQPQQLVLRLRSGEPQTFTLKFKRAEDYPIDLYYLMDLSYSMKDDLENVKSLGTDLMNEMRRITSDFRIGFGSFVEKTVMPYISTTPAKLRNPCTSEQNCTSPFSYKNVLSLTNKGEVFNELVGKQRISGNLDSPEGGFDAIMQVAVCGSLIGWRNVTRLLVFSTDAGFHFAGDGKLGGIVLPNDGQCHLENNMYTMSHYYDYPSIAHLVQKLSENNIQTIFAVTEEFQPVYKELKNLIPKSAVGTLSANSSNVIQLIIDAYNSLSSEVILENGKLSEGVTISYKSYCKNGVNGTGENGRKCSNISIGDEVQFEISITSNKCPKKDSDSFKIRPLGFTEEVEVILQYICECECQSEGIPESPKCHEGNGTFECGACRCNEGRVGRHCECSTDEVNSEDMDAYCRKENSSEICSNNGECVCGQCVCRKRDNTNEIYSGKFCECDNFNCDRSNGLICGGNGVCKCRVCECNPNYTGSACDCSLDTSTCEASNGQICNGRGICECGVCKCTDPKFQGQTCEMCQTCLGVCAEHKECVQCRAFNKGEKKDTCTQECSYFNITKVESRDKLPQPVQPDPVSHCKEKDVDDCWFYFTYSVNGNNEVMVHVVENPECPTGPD
As to the kind of experiment: Solid Phase Receptor Assay (SPRA) for α5β1 function. It is filed as binding. The note with it: plate-bound human fibronectin. Here is the method: A. Solid Phase Receptor Assay (SPRA) for α5β1 Function
Wells were washed 3 times with 150 μL TBS+ and then 150 μL of blocking buffer (TBS+ with 1% bovine serum albumin, Sigma A7906) was added. The plate was incubated for 1 hr at 37° C. and then washed 3× with TBS+ buffer. […] Compounds were diluted to 20 μM and then 1 μL was added to each well of the plate according to a standard template with each sample repeated in triplicate. After incubation for two hours at room temperature, the plate was washed 3× with 150 μL of TBS+ buffer. To each well, 50 μL of biotinylated anti-α5 antibody (R&D Systems, BAF1864) at 0.5 μg/mL in TBS+/0.1% BSA were added and the plate covered and incubated for 1 hr at room temperature. After washing the plate 3× with 150 μL of TBS+ buffer, 50 μL of streptavidin-conjugated horseradish peroxidase (R&D Systems, DY998) diluted in TBS+ blocking buffer were added to the wells and the plate incubated for 20 min at room temperature. The plate was washed 3× with TBS+ buffer followed by 50 μL of room temperature TMB substrate (Sigma, T4444) added to each well in the dark and the plate incubated for 25 min at room temperature. 25 μL of 1.0 M phosphoric acid was added as a stop solution and the plates were read at 450 nm using a Spectramax plate reader.

pIC50: −log10 of the molar value. Counter-ions that a name gives are not always drawn.

A word on the pIC50: it is the negative decadic logarithm of the IC50, by convention in mol/L.

T1 sequence (P06756 31-992 limits assumed): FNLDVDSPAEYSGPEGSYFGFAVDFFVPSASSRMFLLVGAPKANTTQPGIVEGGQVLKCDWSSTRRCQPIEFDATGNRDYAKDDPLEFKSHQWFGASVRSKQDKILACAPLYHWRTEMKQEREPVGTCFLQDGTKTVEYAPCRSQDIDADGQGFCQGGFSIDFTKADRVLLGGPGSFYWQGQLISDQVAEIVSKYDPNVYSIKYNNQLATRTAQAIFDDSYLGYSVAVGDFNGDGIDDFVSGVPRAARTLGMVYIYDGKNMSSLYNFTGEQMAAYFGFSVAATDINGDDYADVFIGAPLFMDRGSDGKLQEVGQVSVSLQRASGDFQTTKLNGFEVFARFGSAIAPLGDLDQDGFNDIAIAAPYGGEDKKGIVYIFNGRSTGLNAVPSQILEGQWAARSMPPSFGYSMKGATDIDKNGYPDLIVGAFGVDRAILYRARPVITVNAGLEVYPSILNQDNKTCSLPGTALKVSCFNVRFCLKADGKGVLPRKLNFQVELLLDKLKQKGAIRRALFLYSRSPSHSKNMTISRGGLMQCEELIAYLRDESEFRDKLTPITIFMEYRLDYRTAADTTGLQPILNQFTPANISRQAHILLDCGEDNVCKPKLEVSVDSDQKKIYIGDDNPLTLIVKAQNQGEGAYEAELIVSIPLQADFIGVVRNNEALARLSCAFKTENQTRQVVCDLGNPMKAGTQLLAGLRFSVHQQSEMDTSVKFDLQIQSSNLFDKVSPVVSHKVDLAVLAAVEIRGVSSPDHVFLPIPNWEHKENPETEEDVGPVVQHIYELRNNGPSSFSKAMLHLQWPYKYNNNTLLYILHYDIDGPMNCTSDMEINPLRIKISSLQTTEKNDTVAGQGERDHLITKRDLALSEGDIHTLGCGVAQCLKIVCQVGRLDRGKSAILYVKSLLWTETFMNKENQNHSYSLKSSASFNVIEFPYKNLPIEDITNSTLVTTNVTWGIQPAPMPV
T1 sequence (P05106 27-718 limits assumed): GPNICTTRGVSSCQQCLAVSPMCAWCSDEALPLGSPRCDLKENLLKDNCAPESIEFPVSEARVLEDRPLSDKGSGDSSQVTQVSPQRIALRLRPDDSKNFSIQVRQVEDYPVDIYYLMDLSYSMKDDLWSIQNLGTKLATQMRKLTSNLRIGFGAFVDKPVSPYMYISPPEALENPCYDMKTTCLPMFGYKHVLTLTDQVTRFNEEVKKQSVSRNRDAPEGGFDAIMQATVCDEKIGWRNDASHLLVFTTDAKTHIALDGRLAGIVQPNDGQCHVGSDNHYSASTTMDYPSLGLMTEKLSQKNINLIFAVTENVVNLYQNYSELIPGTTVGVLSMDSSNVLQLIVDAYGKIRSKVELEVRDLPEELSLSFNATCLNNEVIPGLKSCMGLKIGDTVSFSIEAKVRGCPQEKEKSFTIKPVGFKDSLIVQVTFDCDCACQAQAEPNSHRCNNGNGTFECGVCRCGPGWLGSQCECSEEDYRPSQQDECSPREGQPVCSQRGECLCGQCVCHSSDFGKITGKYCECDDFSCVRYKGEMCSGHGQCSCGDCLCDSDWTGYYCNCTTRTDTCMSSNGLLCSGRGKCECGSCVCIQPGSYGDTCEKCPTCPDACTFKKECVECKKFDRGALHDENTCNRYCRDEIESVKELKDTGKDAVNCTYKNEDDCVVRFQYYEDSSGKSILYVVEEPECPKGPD

As for `COc1ccc(C(C)(C)C)cc1C(CC(=O)O)Cc1csc(CCCc2ccc3c(n2)NCCC3)n1` (stereo not drawn) [Example 28, 3-(5-(tert-butyl)-2-methoxyphenyl)-4-(2-(3-(5,6,7,8-tetrahydro-1,8-naphthyridin-2-yl)propyl)thiazol-4-yl)butanoic acid], the negative-log IC50 (pIC50) in assay [1] was 5.82; in assay [2], 7.60.
Consider `Cn1nc(CC(CC(=O)O)c2cc3c(c(C(C)(C)C)c2)OCO3)cc1OCCc1ccc2c(n1)NCCC2` (stereo not drawn) [Example 15], for which the pIC50 in assay [1] was 8.05; in assay [2], 7.55.
As to `COc1cc(C(CC(=O)O)Cc2cc(OCCc3ccc4c(n3)NCCC4)n(C)n2)cc(C23CC4CC(CC(C4)C2)C3)c1OC` (stereo not drawn) [Example 14, 3-[3-(1-adamantyl)-4,5-dimethoxy-phenyl]-4-[1-methyl-5-[2-(5,6,7,8-tetrahydro-1,8-naphthyridin-2-yl)ethoxy]pyrazol-3-yl]butanoic acid], the pIC50 was 8.05 in assay [1] and 7.33 in assay [2].
In the case of `COc1ccc(C(F)(F)F)cc1C(CC(=O)O)Cc1csc(CCCc2ccc3c(n2)NCCC3)n1` (stereo not drawn) [Example 35, 3-[2-methoxy-5-(trifluoromethyl)phenyl]-4-[2-[3-(5,6,7,8-tetrahydro-1,8-naphthyridin-2-yl)propyl]thiazol-4-yl]butanoic acid], the negative logarithm of the IC50 (pIC50) in assay [1] is 7.11; in assay [2] it was 7.06.
With `COc1ccc(C(C)(C)O)cc1C(CC(=O)O)Cc1cc(OCCc2ccc3c(n2)NCCC3)n(C)n1` (stereo not drawn) [Example 22, 3-(5-(2-hydroxypropan-2-yl)-2-methoxyphenyl)-4-(1-methyl-5-(2-(5,6,7,8-tetrahydro-1,8-naphthyridin-2-yl)ethoxy)-1H-pyrazol-3-yl)butanoic acid], the values for the negative logarithm of the IC50 (pIC50) in assay [1] and in assay [2] were 8.30 and 8.70, respectively.
Take `Cn1nc(CC(CC(=O)O)c2cc(C(C)(C)C)cc(C(C)(C)C#N)c2)cc1OCCc1ccc2c(n1)NCCC2` (stereo not drawn) [Example 9, 3-[3-tert-butyl-5-(1-cyano-1-methyl-ethyl)phenyl]-4-[1-methyl-5-[2-(5,6,7,8-tetrahydro-1,8-naphthyridin-2-yl)ethoxy]pyrazol-3-yl]butanoic acid]: the figures for the pIC50 in assay [1] and in assay [2] were 7.42 and 9.00, respectively.
Consider `Cc1cc(C)n(-c2cccc(C(CC(=O)O)Cc3csc(CCc4ccc5c(n4)NCCC5)n3)c2)n1` (stereo not drawn) [Example 38, 3-(3-(3,5-dimethyl-1H-pyrazol-1-yl)phenyl)-4-(2-(2-(5,6,7,8-tetrahydro-1,8-naphthyridin-2-yl)ethyl)thiazol-4-yl)butanoic acid], for which the negative-log IC50 (pIC50) in assay [1] was 8.05; in assay [2], 6.38.
In the case of `COc1cc(C(CC(=O)O)Cc2cc(OCCc3ccc4c(n3)NCCC4)n(C)n2)cc(C23CC4CC(CC(C4)C2)C3)c1OCc1ccccc1` (stereo not drawn) [Example 13, 3-[3-(1-adamantyl)-4-benzyloxy-5-methoxy-phenyl]-4-[1-methyl-5-[2-(5,6,7,8-tetrahydro-1,8-naphthyridin-2-yl)ethoxy]pyrazol-3-yl]butanoic acid], the pIC50 is 7.51 in assay [1] and 6.68 in assay [2].
In the case of `COCC1(c2ccc(OC)c(C(CC(=O)O)Cc3cc(OCCc4ccc5c(n4)NCCC5)n(C)n3)c2)CCOCC1` (stereo not drawn) [Example 45, 3-(2-methoxy-5-(4-(methoxymethyl)tetrahydro-2H-pyran-4-yl)phenyl)-4-(1-methyl-5-(2-(5,6,7,8-tetrahydro-1,8-naphthyridin-2-yl)ethoxy)-1H-pyrazol-3-yl)butanoic acid], the results for the pIC50 in assay [1] and in assay [2] were 5.92 and 7.89, respectively.
On to `Cn1nc(CC(CC(=O)O)c2cc(C(C)(C)C)ccc2C#N)cc1OCCc1ccc2c(n1)NCCC2` (stereo not drawn) [Example 18, 3-(5-(tert-butyl)-2-cyanophenyl)-4-(1-methyl-5-(2-(5,6,7,8-tetrahydro-1,8-naphthyridin-2-yl)ethoxy)-1H-pyrazol-3-yl)butanoic acid], for which the negative logarithm of the IC50 (pIC50) was 7.25 in assay [1] and 8.40 in assay [2].
Regarding `COCC1(c2ccc(OC)c([C@H](CC(=O)O)Cc3cc(OCCc4ccc5c(n4)NCCC5)n(C)n3)c2)CCOCC1` [Example 48, (S)-3-(2-methoxy-5-(4-(methoxymethyl)tetrahydro-2H-pyran-4-yl)phenyl)-4-(1-methyl-5-(2-(5,6,7,8-tetrahydro-1,8-naphthyridin-2-yl)ethoxy)-1H-pyrazol-3-yl)butanoic acid], the results for the pIC50 in assay [1] and in assay [2] were 6.16 and 8.01, respectively.
With `COc1c(C(C)(C)C)cc(C(CC(=O)O)Cc2csc(CCCc3ccc4c(n3)NCCC4)n2)cc1C(C)(C)C` (stereo not drawn) [Example 29, 3-(3,5-di-tert-butyl-4-methoxyphenyl)-4-(2-(3-(5,6,7,8-tetrahydro-1,8-naphthyridin-2-yl)propyl)thiazol-4-yl)butanoic acid], the values for the pIC50 in assay [1] and in assay [2] were 5.80 and 7.40, respectively.
Take `COc1ccc(C2=CCOCC2)cc1[C@H](CC(=O)O)Cc1csc(CCCc2ccc3c(n2)NCCC3)n1` [Example 37A, (S)-3-(5-(3,6-dihydro-2H-pyran-4-yl)-2-methoxyphenyl)-4-(2-(3-(5,6,7,8-tetrahydro-1,8-naphthyridin-2-yl)propyl)thiazol-4-yl)butanoic acid trifluoroacetate]: the pIC50 is 6.80 in assay [1] and 7.77 in assay [2].
For `CC(C)(C)c1cc(C(CC(=O)O)Cc2csc(CCCc3ccc4c(n3)NCCC4)n2)cc(C2(C(F)F)CC2)c1` (stereo not drawn) [Example 30, 3-[3-tert-butyl-5-[1-(difluoromethyl)cyclopropyl]phenyl]-4-[2-[3-(5,6,7,8-tetrahydro-1,8-naphthyridin-2-yl)propyl]thiazol-4-yl]butanoic acid] the same measures were 6.14 and 7.52.
Turning to `COc1ccc(C2=CCOCC2)cc1C(CC(=O)O)Cc1cc(OCCc2ccc3c(n2)NCCC3)n(C)n1` (stereo not drawn) [Example 42], the figures for the pIC50 in assay [1] and in assay [2] were 7.24 and 8.00, respectively.
Turning to `CC(C)(C)c1cc(C(CC(=O)O)Cc2csc(CCCc3ccc4c(n3)NCCC4)n2)cc(C(C)(C)C(F)(F)F)c1` (stereo not drawn) [Example 31, 3-[3-tert-butyl-5-(2,2,2-trifluoro-1,1-dimethyl-ethyl)phenyl]-4-[2-[3-(5,6,7,8-tetrahydro-1,8-naphthyridin-2-yl)propyl]thiazol-4-yl]butanoic acid], the values for the pIC50 in assay [1] and in assay [2] were 5.59 and 7.18, respectively.
For `Cn1nc(CC(CC(=O)O)c2cc(C(C)(C)C)ccc2Br)cc1OCCc1ccc2c(n1)NCCC2` (stereo not drawn) [Example 17, 3-(2-bromo-5-(tert-butyl)phenyl)-4-(1-methyl-5-(2-(5,6,7,8-tetrahydro-1,8-naphthyridin-2-yl)ethoxy)-1H-pyrazol-3-yl)butanoic acid], the pIC50 is 6.03 in assay [1] and 6.92 in assay [2].
For `Cn1nc(CC(CC(=O)O)c2cc(Br)cc(S(F)(F)(F)(F)F)c2)cc1OCCc1ccc2c(n1)NCCC2` (stereo not drawn) [Example 3, 3-[3-bromo-5-(pentafluoro-sulfanyl)phenyl]-4-[1-methyl-5-[2-(5,6,7,8-tetrahydro-1,8-naphthyridin-2-yl)ethoxy]pyrazol-3-yl]butanoic acid], the negative logarithm of the IC50 (pIC50) in assay [1] is 8.10; in assay [2], 7.51.
For `COc1ccc(C2=CCOCC2)cc1C(CC(=O)O)Cc1csc(CCCc2ccc3c(n2)NCCC3)n1` (stereo not drawn) [Example 37, 3-[5-(3,6-dihydro-2H-pyran-4-yl)-2-methoxy-phenyl]-4-[2-[3-(5,6,7,8-tetrahydro-1,8-naphthyridin-2-yl)propyl]thiazol-4-yl]butanoic acid], the pIC50 is 6.64 in assay [1] and 7.60 in assay [2].
Take `COc1ccc(C(CC(=O)O)Cc2cc(OCCc3ccc4c(n3)NCCC4)n(C)n2)cc1F` (stereo not drawn) [Example 44, 3-(3-fluoro-4-methoxyphenyl)-4-(1-methyl-5-(2-(5,6,7,8-tetrahydro-1,8-naphthyridin-2-yl)ethoxy)-1H-pyrazol-3-yl)butanoic acid]: the pIC50 was 8.64 in assay [1] and 7.33 in assay [2].
The like results for `Cn1nc(CC(CC(=O)O)c2cc(Cl)cc(C(C)(C)C#N)c2)cc1OCCc1ccc2c(n1)NCCC2` (stereo not drawn) [Example 8, 3-(3-chloro-5-(2-cyanopropan-2-yl)phenyl)-4-(1-methyl-5-(2-(5,6,7,8-tetrahydro-1,8-naphthyridin-2-yl)ethoxy)-1H-pyrazol-3-yl)butanoic acid] were, in that order, 8.52 and 8.52.
